# In patent publication US20230048888A1, “USE OF TRIAZOLOTRIAZINE DERIVATIVE IN TREATMENT OF DISEASES” (ZHEJIANG VIMGREEN PHARMACEUTICALS, LTD., priority 2019, published 2023):
# Tests used:
# [1] = system: 6-OHDA-induced contralateral rotation; assay: 6-OHDA-induced rat rotation experiment, first stage (number of rotations); assay type: in vivo, Wistar rats
# Text: After long-term use of levodopa, patients with Parkinson's disease are prone to drug resistance (end-of-dose phenomenon). That is, the duration of its pharmaceutical effect tends to gradually become shorter (shortened opening period), its efficacy will become weaker and weaker, and the symptoms of the patients are becoming more and more uncontrollable. By the combined use with the test compound, the efficacy of levodopa can be restored for patients with Parkinson's disease in the off phase, who have already experienced the end-of-dose phenomenon. The rat model of Parkinson's disease was constructed by fixed-point injection of 6-hydroxydopamine (6-OHDA) to damage the substantia nigra striatum, and then the animals were administrated with levodopa (L-DOPA)/Benserazide (BID) for a long term (3-4 weeks as planned).
# There should be at least an interval of 1 day between rotation tests for respective doses. A total of 6 tests were carried out in the first stage.
# […] injection volume: each rat was injected with 4 μl of 6-OHDA solution (2.5 μg/μl) on the left medial forebrain bundle (MFB).
# Coordinates for injecting […]: by taking the anterior fontanelle as a standard reference point and with reference to the stereotactic map of rat brain, the injection was performed on the left medial forebrain bundle at: anterior(A), −2.5 mm; lateral (L), +2.0 mm; ventral (V), −8.5 mm.
# […] injection speed: the injection speed was 1 μl/min; after injection, the needle was left in situ for 5 min, and then slowly withdrawn at a speed of 1 mm/min; and the wound was then sutured. Grouping and administration were carried out according to the method of experimental design.
# In the first stage, only the number of rotations of the animal was tested, and only the rotation response time was tested in the second stage.
# The test results are represented as “mean±standard deviation”. The data was statistically analyzed by the SPSS16.0 software package. One-way ANOVA, paired sample T test and independent sample T test were used for comparison, with P<0.05 showing a statistical difference.
# [2] = system: murine colon cancer MC38 cell line; assay: Subcutaneous homotransplantation of murine colon cancer MC38 cell line in C57BL/6 female mice; assay type: in vivo; conditions: for T/C (%) / TGI (%) / Tumor volume: Day 22
# Experimental: The MC38 mouse colon cancer cell model is a commonly used model for verifying a pharmaceutical effect on the colon cancer. It is mostly used to study the occurrence and metastasis direction of the colorectal cancer, and has become a common approach to the pharmaceutical effect verification for tumors. The anti-tumor effect of the subcutaneous homotransplantation of a test drug in a murine colon cancer MC38 cell line of C57BL/6 female mouse model was evaluated.
# MC38 cells were cultured in a DMEM culture solution containing 10% fetal bovine serum. The MC38 cells in the exponential growth phase were collected and resuspended in PBS to a suitable concentration for subcutaneous tumor inoculation in mice.
# Female mice were subcutaneously inoculated with 1×10^6 MC38 cells on the right side. The day of inoculation was defined as Day 0. On the second day (Day 1) of […] cell inoculation, the mice were administered randomly according to body weight. The solution of Compound 22 was prepared at 3 mg/mL and 10 mg/mL respectively for later use.
# Formula for calculating tumor volume: tumor volume (mm^3)=½×(a×b^2) (a representing a long diameter and b representing a short diameter);
# (§1) Tumor proliferation rate, T/C %, was a percentage ratio of tumor volume or tumor weight between the treatment group and the control group at a certain time point. It was calculated with a formula was as follows:
# (§2) T/C %=TTV/CTV×100% (TTV (TTV: the average TV of the treatment group at a specific time point;
# All experimental results were represented as the average tumor volume±SEM (mean standard error). Statistical analysis between different groups were conducted to select the optimal drug treatment point (usually after the last dosage). A comparison was conducted with the independent sample T test method to determine if there is a significant difference in tumor volume between the treatment group ad the control group. All data were analyzed with SPSS 18.0. P<0.05 indicated a significant difference.
# [3] = system: CT26 cells; assay: CT26 murine colon cancer homotransplantation model; assay type: in vivo, BALB/c mice
# Experimental: The CT26 murine colon cancer homotransplantation model is a classic pharmaceutical effect evaluation model for colon cancer. It is constructed by subcutaneously inoculating CT26 to BALB/c mice. The test compounds were administrated to evaluate their inhibitory effects on tumor growth in the model.
# CT26 cells were cultured in an RPMI1640 culture solution containing 10% fetal bovine serum. The CT26 cells in the exponential growth phase were collected and resuspended in PBS to a suitable concentration for subcutaneous tumor inoculation in mice.
# Female mice were subcutaneously inoculated with 5×10^5 CT26 cells on the right side. The day of inoculation was defined as Day 0. On the second day (Day 1) of […] cell inoculation, the mice were administered randomly according to body weight.
# as §1, §2
# [4] = system: haloperidol-induced stiffness; assay: Haloperidol-induced Wistar rat stiffness model (bar test, rearing); assay type: in vivo, Wistar rats; conditions: 10 mg/kg intragastric
# Experimental: Time of bar test: The stiffness of the rats was tested by the bar test. That is, a wooden bar with a diameter of 8 mm was fixed between 2 iron stands and was 10 cm from the bench top; and then, the rat's tail was grabbed to make its front paws rest on the wooden bar and its hind paws or buttocks on the ground. Generally, the rat needs to acclimate several times when it was tested for the first time. The time for the forelimbs to drop from the bar or the time for the hind limbs to leave the bench top were tested, each rat was tested 3 times. Number of standings: the number of standings of the rat was measured by the rearing test. That is, the rat was placed in a 27*52 cm cage and acclimate for 5 minutes, and the spontaneous activity behavior, i.e., the number of standings, of the rat within 10 minutes was recorded. When the rat's hind limbs stood with two forelimbs raised over the shoulders and touched the ground, one standing is counted, and the one forelimb lift was excluded. Generally, the rat would raise its forelimbs to touch the cage wall. If the rat raised its forelimbs over the shoulders several times without falling to the ground, only one standing was counted. The time of bar test was taken as a measurement index, including the average time and the maximum time. Long time indicates severe stiffness, short time indicates mild stiffness. After drug treatment, the shorter the time of bar test, the better the effect of the drug on relieving stiffness. The number of standings was counted by the rearing test. The more the number of standings, the more frequent the spontaneous exploration activity of the rat, and the lower the stiffness. The statistical analysis between groups was performed on the data by using Prism GraphPad 7.0 independent sample T test, and P<0.05 was considered as a significant difference.
# [5] = 30 mg/kg p.o. QD combined with Anti-PD-1 100 μg/animal i.p.
smiles,measurement,setting,value
"CC(=O)O.Nc1nc(NCCc2ccc(NC3COC3)cc2)nc2nc(-c3ccco3)nn12 [Acetate of Compound 22, 2-(furan-2-yl)-N5-(4-(oxetane-3-ylamino)phenethyl)-[1,2,4]triazolo[1,5-a][1,3,5]triazine-5,7-diamine acetate]",Total number of rotations (60 min),[1]; 1 mg/kg oral + L-DOPA (5 mg/kg)/Benserazide (1.25 mg/kg) i.p.,41.4 ± 80.8
same,Total number of rotations (60 min),[1]; 3 mg/kg oral + L-DOPA (5 mg/kg)/Benserazide (1.25 mg/kg) i.p.,36.6 ± 46.3
same,Total number of rotations (60 min),[1]; 10 mg/kg oral + L-DOPA (5 mg/kg)/Benserazide (1.25 mg/kg) i.p.,109.4 ± 205.2
same,Total number of rotations (60 min),[1]; 30 mg/kg oral + L-DOPA (5 mg/kg)/Benserazide (1.25 mg/kg) i.p.,285.2 ± 283.8
same,Total number of rotations (60 min),[1]; 100 mg/kg oral + L-DOPA (5 mg/kg)/Benserazide (1.25 mg/kg) i.p.,379.3 ± 326.4
same,Total number of rotations (60 min),[1]; single oral 1 mg/kg alone,7.7 ± 5.6
same,Total number of rotations (60 min),[1]; single oral 3 mg/kg alone,17.1 ± 18.7
same,Total number of rotations (60 min),[1]; single oral 10 mg/kg alone,11.6 ± 13.9
same,Total number of rotations (60 min),[1]; single oral 30 mg/kg alone,30.7 ± 22.5
same,Total number of rotations (60 min),[1]; single oral 100 mg/kg alone,35.2 ± 18.8
"Nc1nc(NCCc2ccc(NC3COC3)cc2)nc2nc(-c3ccco3)nn12 [Compound 22, 2-(furan-2-yl)-N5-(4-(oxetan-3-ylamino)phenethyl)-[1,2,4]triazolo[1,5-a][1,3,5]triazine-5,7-diamine]",T/C (%),[2]; 30 mg/kg p.o. QD,66%
same,TGI (%),[2]; 30 mg/kg p.o. QD,34%
same,Tumor volume,[2]; 30 mg/kg p.o. QD,1205.60 ± 259.65 mm^3
same,T/C (%),[2]; [5],15%
same,TGI (%),[2]; [5],85%
same,Tumor volume,[2]; [5],268.89 ± 57.10 mm^3
same,T/C (%),[2]; 100 mg/kg p.o. QD,52%
same,TGI (%),[2]; 100 mg/kg p.o. QD,48%
same,Tumor volume,[2]; 100 mg/kg p.o. QD,951.28 ± 116.30 mm^3
same,Animal death / changes in body weight,[2]; alone or combined with anti-PD-1 antibody,no animal death or significant changes in body weight
same,T/C (%),"[3]; Day 26, 100 mg/kg p.o. QD",81%
same,TGI (%),"[3]; Day 26, 100 mg/kg p.o. QD",19%
same,Tumor volume,"[3]; Day 26, 100 mg/kg p.o. QD, in mm³",1988.56 ± 325.70
same,Clinical abnormalities during the dosage,[3]; p.o. QD × 25 days,no obvious clinical abnormalities were observed
"CCn1c(=O)c2c(nc(/C=C/c3ccc(OC)c(OC)c3)n2C)n(CC)c1=O [Istradefylline, reference compound]",Average on-bar time,[4],10.33 ± 1.58 s
same,Maximum on-bar time,[4],15.38 ± 2.75 s
same,Number of standings,[4]; 1st hour after haloperidol,23.25 ± 2.86
